pIC50: −log10 of the molar value. Read-outs that look alike come from different tables or passages of the source.
Molecular target: T1, hNPR-C (Homo sapiens, UniProt P17342)
T1 sequence (P17342 27-541): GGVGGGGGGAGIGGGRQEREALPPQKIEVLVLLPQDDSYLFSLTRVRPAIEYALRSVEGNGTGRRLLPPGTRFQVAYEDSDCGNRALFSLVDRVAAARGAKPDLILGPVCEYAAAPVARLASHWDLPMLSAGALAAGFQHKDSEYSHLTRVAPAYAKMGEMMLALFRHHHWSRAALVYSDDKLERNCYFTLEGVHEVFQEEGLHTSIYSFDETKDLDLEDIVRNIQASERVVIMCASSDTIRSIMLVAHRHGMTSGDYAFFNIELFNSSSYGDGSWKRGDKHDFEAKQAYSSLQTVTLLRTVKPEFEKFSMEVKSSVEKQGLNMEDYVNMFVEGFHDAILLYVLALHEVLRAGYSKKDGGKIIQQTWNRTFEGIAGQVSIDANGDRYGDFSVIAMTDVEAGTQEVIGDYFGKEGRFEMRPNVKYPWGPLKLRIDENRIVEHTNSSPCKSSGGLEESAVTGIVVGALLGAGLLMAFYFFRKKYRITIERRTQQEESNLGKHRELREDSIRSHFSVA
Assay: Binding affinity for clearance receptor hNPR-C
Settings: for IC50: Table I, read-out: Binding Affinity IC50 (pM) hNPR-C
Text: For assay systems to measure binding of hANF and the compounds of this invention to hNPR-C see: Schank, D. B., et al., Biochem. Biophys. Res. Comm. 127:433-442 (1985); Scarborough, R. M., J. Biol. Chem. 261:12960-12964 and WO 90/01940.

| Structure (SMILES) | IC50 | pIC50 |
| --- | --- | --- |
| CC[C@H](C)[C@@H]1NC(=O)[C@H](CCCNC(=N)N)NC(=O)[C@H](CC(=O)O)NC(=O)[C@H]([C@@H](C)CC)NC(=O)[C@H](CCCNC(=N)N)NC(=O)CNC(=O)CNC(=O)[C@H](Cc2ccccc2)NC(=O)[C@@H](NC(=O)[C@H](CO)NC(=O)[C@H](CO)NC(=O)[C@H](CCCNC(=N)N)NC(=O)[C@H](CCCNC(=N)N)NC(=O)[C@H](CC(C)C)NC(=O)[C@@H](N)CO)CSSC[C@@H](C(=O)N[C@@H](CC(N)=O)C(=O)N[C@@H](CO)C(=O)N[C@@H](Cc2ccccc2)C(=O)N[C@@H](CCCNC(=N)N)C(=O)N[C@@H](Cc2ccc(O)cc2)C(=O)O)NC(=O)CNC(=O)[C@H](CC(C)C)NC(=O)CNC(=O)[C@H](CO)NC(=O)[C@H](CCC(N)=O)NC(=O)[C@H](C)NC(=O)[C@H](CCCNC(=N)N)NC1=O [ANF24] | 5640 pM | – |
| CC[C@H](C)[C@@H]1NC(=O)[C@H](CCCNC(=N)N)NC(=O)[C@H](CC(=O)O)NC(=O)[C@H]([C@@H](C)CC)NC(=O)[C@H](CO)NC(=O)CNC(=O)[C@H]([C@@H](C)O)NC(=O)[C@H](Cc2ccccc2)NC(=O)[C@@H](NC(=O)[C@H](CO)NC(=O)[C@H](CO)NC(=O)[C@H](CCCNC(=N)N)NC(=O)[C@H](CCCNC(=N)N)NC(=O)[C@H](CC(C)C)NC(=O)[C@@H](N)CO)CSSC[C@@H](C(=O)N[C@@H](CC(N)=O)C(=O)N[C@@H](CO)C(=O)N[C@@H](Cc2ccccc2)C(=O)N[C@@H](CCCNC(=N)N)C(=O)N[C@@H](Cc2ccc(O)cc2)C(=O)O)NC(=O)CNC(=O)[C@H](CC(C)C)NC(=O)CNC(=O)[C@H](CO)NC(=O)[C@H](CCC(N)=O)NC(=O)[C@H](C)NC(=O)[C@H](CCCNC(=N)N)NC1=O [ANF27] | 1e+06 pM | – |
| CC[C@H](C)[C@@H]1NC(=O)[C@H](CCCNC(=N)N)NC(=O)[C@H](CC(=O)O)NC(=O)[C@H]([C@@H](C)CC)NC(=O)[C@H](CO)NC(=O)CNC(=O)[C@@H](C)NC(=O)[C@H](Cc2ccccc2)NC(=O)[C@@H](NC(=O)[C@H](CO)NC(=O)[C@H](CO)NC(=O)[C@H](CCCNC(=N)N)NC(=O)[C@H](CCCNC(=N)N)NC(=O)[C@H](CC(C)C)NC(=O)[C@@H](N)CO)CSSC[C@@H](C(=O)N[C@@H](CC(N)=O)C(=O)N[C@@H](CO)C(=O)N[C@@H](Cc2ccccc2)C(=O)N[C@@H](CCCNC(=N)N)C(=O)N[C@@H](Cc2ccc(O)cc2)C(=O)O)NC(=O)CNC(=O)[C@H](CC(C)C)NC(=O)CNC(=O)[C@H](CO)NC(=O)[C@H](CCC(N)=O)NC(=O)[C@H](C)NC(=O)[C@H](CCCNC(=N)N)NC1=O [ANF78] | – | 8.06 |
